In publication PMC4148168 (Journal of Medicinal Chemistry, 2014):

Key:
[1] = system: matrix metalloproteinases; conditions: cited from earlier work
hCAII [2] = target: T1, hCAII (Homo sapiens, UniProt P00918); test: hCAII activity assay; assay type: biochemical
hCAII [3] = target: T1, hCAII; conditions: aliphatic thiols; cited from earlier work

[O-][n+]1ccccc1S [1,2-HOPTO, 1-hydroxypyridine-2-(1H)-thione]
fold more potent than 1,2-HOPO [1]: ~50 fold | fold more potent than 1,2-HOPO (hCAII [2]; against hCAII): ~50 fold

OCCS [2-mercaptoethanol]
inhibitory activity against hCAII (in words) (hCAII [3]): lack inhibitory activity

Cc1cccn(O)c1=S [3-CH3-1,2-HOPTO]
fold increase in potency over unsubstituted 1,2-HOPTO (hCAII [2]; against hCAII): > 10 fold

Cc1cc(C)n(O)c(=S)c1 [4,6-CH3-1,2-HOPTO]
fold decrease in potency/affinity relative to 4-CH3-1,2-HOPTO (hCAII [2]; against hCAII): > 20 fold

Cc1ccnc(S)c1 [4-CH3-2MPyr, 2-Mercapto-4-methylpyridine]
fold decrease in potency/affinity relative to 4-CH3-1,2-HOPTO (hCAII [2]; against hCAII): ~200 fold

On1c(C(F)(F)F)cccc1=S [6-CF3-1,2-HOPTO]
inhibition of hCAII (in words) (hCAII [2]): all activity is lost

Cc1cccc(=S)n1O [6-CH3-1,2-HOPTO]
fold decrease in potency relative to 1,2-HOPTO (hCAII [2]; against hCAII): 5 fold
